Reference: patent publication US6930185B2, “Melanin-concentrating hormone antagonist” (Takeda Chemical Industries, Ltd., priority 2000, dated 2005)

Question: With O=C(Oc1ccc2cc(CN3CCCC3)ccc2c1)N1CCC(c2ccc(Cl)cc2)CC1 as the compound, how does the melting point read?
Answer: 121 to 123 °C

Question: Which melting point does the source give for COc1ccc(C2CCN(C(=O)Oc3ccc4cc(CN5CCCC5)ccc4c3)CC2)cc1 here?
Answer: 127 to 129 °C

Question: For Cc1ccc(C2CCN(C(=O)Oc3ccc4cc(CN5CCCC5)ccc4c3)CC2)cc1, which melting point is on record?
Answer: 238 to 240 °C

Question: Which melting point does the source give for O=C(Oc1ccc2cc(CN3CCCC3)ccc2c1)N1CCC(c2ccc(F)cc2)CC1 here?
Answer: 106 to 108 °C

Question: Which melting point does the source give for Cl.O=C(Oc1ccc2cc(CN3CCCC3)ccc2c1)N1CCC(c2ccccc2)CC1 here?
Answer: 213 to 215 °C

Question: For O=C(Nc1ccc2nc(CN3CCCCC3)ccc2c1)c1ccc(-c2ccc(F)cc2F)cc1 (hydrate or solvate) [Example 68, 2′,4′-Difluoro-N-[2-(1-piperidinylmethyl)-6-quinolinyl][1,1′-biphenyl]-4-carboxamide], which melting point is on record?
Answer: 181 to 182 °C

Question: With O=C(Nc1ccc2cc(CN3CCCC3)ccc2c1)c1ccc(-c2ccc(Cl)cc2)cc1 [Example 2, 4′-Chloro-N-[6-(1-pyrrolidinylmethyl)-2-naphthyl][1,1′-biphenyl]-4-carboxamide] as the compound, how does the melting point read?
Answer: 214 to 217 °C

Question: For CN(C)Cc1ccc2cc(NC(=O)c3ccc(-c4ccc(Cl)cc4)cc3)ccc2n1 [Example 6, 4′-Chloro-N-[2-[(N,N-dimethylamino)methyl]-6-quinolinyl][1,1′-biphenyl]-4-carboxamide], which melting point is on record?
Answer: 219 to 221 °C

Question: With O=C(Nc1ccc2nc(CN3CCCC3)ccc2c1)c1ccc(-c2ccc(F)cc2)cc1 [Example 7, 4′-Fluoro-N-[2-(1-pyrrolidinylmethyl)-6-quinolinyl][1,1′-biphenyl]-4-carboxamide] as the compound, how does the melting point read?
Answer: 190 to 193 °C

Question: With O=C(Nc1ccc2nc(CN3CCCC3)ccc2c1)c1ccc(-c2ccc(Cl)cc2)cc1 [Example 8, 4′-Chloro-N-[2-(1-pyrrolidinylmethyl)-6-quinolinyl][1,1′-biphenyl]-4-carboxamide] as the compound, how does the melting point read?
Answer: 200 to 202 °C

Question: Which melting point does the source give for O=C(Nc1ccc2nc(CN3CCCCC3)ccc2c1)c1ccc(-c2ccc(F)cc2)cc1 [Example 9, 4′-Fluoro-N-[2-(1-piperidinylmethyl)-6-quinolinyl][1,1′-biphenyl]-4-carboxamide] here?
Answer: 202 to 204 °C

Question: Which melting point does the source give for O=C(Nc1ccc2nc(CN3CCCCC3)ccc2c1)c1ccc(-c2ccc(Cl)cc2)cc1 [Example 10, 4′-Chloro-N-[2-(1-piperidinylmethyl)-6-quinolinyl][1,1′-biphenyl]-4-carboxamide] here?
Answer: 211 to 213 °C

Question: For O=C(Nc1ccc2nc(CN3CCOCC3)ccc2c1)c1ccc(-c2ccc(Cl)cc2)cc1 [Example 11, 4′-Chloro-N-[2-(4-morpholinylmethyl)-6-quinolinyl][1,1′-biphenyl]-4-carboxamide], which melting point is on record?
Answer: 236 to 238 °C

Question: With O=C(Nc1ccc2nc(CN3CCOCC3)ccc2c1)c1ccc(-c2ccccc2)cc1 [Example 12, N-[2-(4-Morpholinylmethyl)-6-quinolinyl][1,1′-biphenyl]-4-carboxamide] as the compound, how does the melting point read?
Answer: 214 to 215 °C

Question: With O=C(Nc1ccc2nc(CN3CCOCC3)ccc2c1)c1ccc(-c2ccc(F)cc2)cc1 [Example 13, 4′-Fluoro-N-[2-(4-morpholinylmethyl)-6-quinolinyl][1,1′-biphenyl]-4-carboxamide] as the compound, how does the melting point read?
Answer: 211 to 212 °C

Question: For Cc1ccc(-c2ccc(C(=O)Nc3ccc4nc(CN5CCOCC5)ccc4c3)cn2)cc1 [Example 14, 6-(4-Methylphenyl)-N-[2-(4-morpholinylmethyl)-6-quinolinyl]nicotinamide], which melting point is on record?
Answer: 214 to 216 °C

Question: Which melting point does the source give for CN(C)Cc1ccc2cc(NC(=O)c3ccc(-c4ccccc4)cc3)ccc2n1 [Example 15, N-[2-[(Dimethylamino)methyl]-6-quinolinyl][1,1′-biphenyl]-4-carboxamide] here?
Answer: 191 to 194 °C

Question: For CN(C)Cc1ccc2cc(NC(=O)c3ccc(-c4ccc(F)cc4)cc3)ccc2n1 [Example 16, N-[2-[(Dimethylamino)methyl]-6-quinolinyl]-4′-fluoro[1,1′-biphenyl]-4-carboxamide], which melting point is on record?
Answer: 205 to 208 °C

Question: For Cc1ccc(-c2ccc(C(=O)Nc3ccc4nc(CN(C)C)ccc4c3)cn2)cc1 [Example 17, N-[2-[(Dimethylamino)methyl]-6-quinolinyl]-6-(4-methylphenyl)nicotinamide], which melting point is on record?
Answer: 220 to 222 °C

Question: Which melting point does the source give for CC1CCN(c2ccc(C(=O)Nc3ccc4nc(CN5CCCC5)ccc4c3)cc2)CC1 [Example 21, 4-(4-Methyl-1-piperidinyl)-N-[2-(1-pyrrolidinylmethyl)-6-quinolinyl]benzamide] here?
Answer: 200 to 202 °C

Question: With O=C(Nc1ccc2nc(CN3CCCC3)ccc2c1)c1ccc(N2CCCCC2=O)cc1 [Example 22, 4-(2-Oxo-1-piperidinyl)-N-[2-(1-pyrrolidinylmethyl)-6-quinolinyl]benzamide] as the compound, how does the melting point read?
Answer: 210 to 212 °C

Question: For CN1CCN(Cc2ccc3cc(NC(=O)c4ccc(-c5ccc(Cl)cc5)cc4)ccc3n2)CC1 [Example 24, 4′-Chloro-N-[2-[(4-methyl-1-piperazinyl)methyl]-6-quinolinyl][1,1′-biphenyl]-4-carboxamide], which melting point is on record?
Answer: 215 °C (dec.)

Question: Which melting point does the source give for O=C(Nc1ccc2nc(CN3CCCC3)ccc2c1)N1CCC(c2ccc(F)cc2)CC1 [Example 38, 4-(4-Fluorophenyl)-N-[2-(1-pyrrolidinylmethyl)-6-quinolinyl]-1-piperidinecarboxamide] here?
Answer: 206 to 207 °C

Question: Which melting point does the source give for O=C(Nc1ccc2nc(CN3CCCC3)ccc2c1)N1CCC(c2ccccc2)CC1 [Example 39, 4-Phenyl-N-[2-(1-pyrrolidinylmethyl)-6-quinolinyl]-1-piperidinecarboxamide] here?
Answer: 187 to 189 °C

Question: Which melting point does the source give for O=C(Nc1ccc2nc(CN3CCCC3)ccc2c1)N1CCC(c2ccc(Cl)cc2)CC1 [Example 40, 4-(4-Chlorophenyl)-N-[2-(1-pyrrolidinylmethyl)-6-quinolinyl]-1-piperidinecarboxamide] here?
Answer: 205 °C (dec.)

Question: For Cc1ccc(C2CCN(C(=O)Nc3ccc4nc(CN5CCCC5)ccc4c3)CC2)cc1 [Example 41, 4-(4-Methylphenyl)-N-[2-(1-pyrrolidinylmethyl)-6-quinolinyl]-1-piperidinecarboxamide], which melting point is on record?
Answer: 214 to 216 °C

Question: With COc1ccc(-c2ccc(C(=O)Nc3ccc4nc(CN5CCCC5)ccc4c3)cn2)cc1 [Example 42, 6-(4-Methoxyphenyl)-N-[2-(1-pyrrolidinylmethyl)-6-quinolinyl]nicotinamide] as the compound, how does the melting point read?
Answer: 210 °C (dec.)

Question: Which melting point does the source give for O=C(Nc1ccc2nc(CN3CCCC3)ccc2c1)c1ccc(-c2ccccc2)cc1 [Example 43, N-[2-(1-Pyrrolidinylmethyl)-6-quinolinyl][1,1′-biphenyl]-4-carboxamide] here?
Answer: 181 to 183 °C

Question: Which melting point does the source give for O=C(Nc1ccc2nc(CN3CCCC3)ccc2c1)c1ccc(-c2ccc(Cl)cc2)nc1 [Example 44, 6-(4-Chlorophenyl)-N-[2-(1-pyrrolidinylmethyl)-6-quinolinyl]nicotinamide] here?
Answer: 225 to 227 °C

Question: With O=C(Nc1ccc2nc(CN3CCCC3)ccc2c1)c1ccc(-c2ccc(F)cc2)nc1 [Example 45, 6-(4-Fluorophenyl)-N-[2-(1-pyrrolidinylmethyl)-6-quinolinyl]nicotinamide] as the compound, how does the melting point read?
Answer: 210 °C

Question: With Cc1ccc(-c2ccc(C(=O)Nc3ccc4nc(CN5CCCC5)ccc4c3)cn2)cc1 [Example 46, 6-(4-Methylphenyl)-N-[2-(1-pyrrolidinylmethyl)-6-quinolinyl]nicotinamide] as the compound, how does the melting point read?
Answer: 207 to 209 °C

Question: For O=C(Nc1ccc2nc(CN3CCCC3)ccc2c1)C1CCN(c2ccc(Cl)cc2)CC1 [Example 52, 1-(4-Chlorophenyl)-N-[2-(1-pyrrolidinylmethyl)-6-quinolinyl]-4-piperidinecarboxamide], which melting point is on record?
Answer: 204 to 206 °C

Question: Which melting point does the source give for O=C(Nc1ccc2nc(CN3CCCCC3)ccc2c1)c1ccc(-c2ccccc2)cc1 [Example 54, N-[2-(1-Piperidinylmethyl)-6-quinolinyl][1,1′-biphenyl]-4-carboxamide] here?
Answer: 186 to 188 °C

Question: With Cc1ccc(-c2ccc(C(=O)Nc3ccc4nc(CN5CCCCC5)ccc4c3)cc2)cc1 [Example 55, 4′-Methyl-N-[2-(1-piperidinylmethyl)-6-quinolinyl][1,1′-biphenyl]-4-carboxamide] as the compound, how does the melting point read?
Answer: 198 to 200 °C

Question: Which melting point does the source give for COc1ccc(-c2ccc(C(=O)Nc3ccc4nc(CN5CCCCC5)ccc4c3)cc2)cc1 [Example 56, 4′-Methoxy-N-[2-(1-piperidinylmethyl)-6-quinolinyl][1,1′-biphenyl]-4-carboxamide] here?
Answer: 192 to 194 °C

Question: With O=C(Nc1ccc2nc(CN3CCCCC3)ccc2c1)c1ccc(-c2ccc(Cl)cc2)nc1 [Example 57, 6-(4-Chlorophenyl)-N-[2-(1-piperidinylmethyl)-6-quinolinyl]nicotinamide] as the compound, how does the melting point read?
Answer: 215 to 218 °C (dec.)

Question: Which melting point does the source give for Cc1ccc(-c2ccc(C(=O)Nc3ccc4nc(CN5CCCCC5)ccc4c3)cn2)cc1 [Example 58, 6-(4-Methylphenyl)-N-[2-(1-piperidinylmethyl)-6-quinolinyl]nicotinamide] here?
Answer: 206 to 207 °C (dec.)

Question: With O=C(Nc1ccc2nc(CN3CCCCC3)ccc2c1)c1ccc(-c2ccc(F)cc2)nc1 [Example 59, 6-(4-Fluorophenyl)-N-[2-(1-piperidinylmethyl)-6-quinolinyl]nicotinamide] as the compound, how does the melting point read?
Answer: 209 to 210 °C (dec.)

Question: Which melting point does the source give for COc1ccc(-c2ccc(C(=O)Nc3ccc4nc(CN5CCCCC5)ccc4c3)cn2)cc1 [Example 60, 6-(4-Methoxyphenyl)-N-[2-(1-piperidinylmethyl)-6-quinolinyl]nicotinamide] here?
Answer: 210 to 211 °C (dec.)

Question: With Cc1ccc(-c2ccc(C(=O)Nc3ccc4nc(CN5CCCC5)ccc4c3)cc2)cc1 [Example 61, 4′-Methyl-N-[2-(1-pyrrolidinylmethyl)-6-quinolinyl][1,1′-biphenyl]-4-carboxamide] as the compound, how does the melting point read?
Answer: 192 to 193 °C

Question: Which melting point does the source give for COc1ccc(-c2ccc(C(=O)Nc3ccc4nc(CN5CCCC5)ccc4c3)cc2)cc1 [Example 62, 4′-Methoxy-N-[2-(1-pyrrolidinylmethyl)-6-quinolinyl][1,1′-biphenyl]-4-carboxamide] here?
Answer: 197 to 199 °C

Question: For O=C(Nc1ccc2nc(CN3CCCCC3)ccc2c1)N1CCC(c2ccc(Cl)cc2)CC1 [Example 63, 4-(4-Chlorophenyl)-N-[2-(1-piperidinylmethyl)-6-quinolinyl]-1-piperidinecarboxamide], which melting point is on record?
Answer: 214 to 217 °C (dec.)
